This is an account of results in patent EP4635969A1, “NOVEL GLUCOCORTICOID, METHOD FOR PREPARING SAME, AND USE THEREOF” (Tianjin Pharmaceutical Biotechnology Co., Ltd., priority 2022, dated 2024).

In data set [1] the test system is inflammatory cytokines (TNF-α). Nature of the data set: Anti-uveitis pharmacodynamic experiment (LPS model): inflammatory cytokines in aqueous humor (ELISA). Conditions: values not given. It counts as in vivo, male SD rats. The method, then: Pharmacological Example 5. Pharmacodynamic Experiment on Anti-Uveitis
Test samples: Compounds 23 and 26 were prepared as 5 mg/5 mL ophthalmic suspensions with reference to the formulation of Fluorometholone Eye Drops, and stored at room temperature protected from light until use.
Positive control drug: Fluorometholone Eye Drops (specification: 5 mL/5 mg; Santen Pharmaceutical (CHINA) Co., Ltd.; Lot No. : J20180068) was used as the positive control drug and stored at room temperature protected from light until use.
Fifty male SD rats underwent a one-week adaptive feeding period. The animals were randomly divided into 5 groups: Group 1 served as the blank control group, and Groups 2 to 5 were the model group, fluorometholone group, compound 23 group, and compound 26 group, respectively. Groups 2 to 5 were used to establish rat uveitis models by single subcutaneous injection of 1 mg/kg LPS (Salmonella; Sigma; Lot No. 0000164114) into the plantar tissue of the hindpaw. Salmonella endotoxin was dissolved in normal saline to prepare an injection solution at a concentration of 2 mg/mL, which was injected subcutaneously at 1 mg/kg into the plantar tissue of one paw of the rats. Group 1 was injected with an equal volume of normal saline.
After modeling, 40 µL of normal saline was administered to the eyes (bilateral) of the rats in the blank control group and model group, and 40 µL of the corresponding drugs were administered to the eyes (bilateral) of the […] in the compound 23 group, compound 26 group, and positive drug fluorometholone group, 3 times a day for 2 days. Table 8. Animal grouping and drug administration dosages
Thirty hours after modeling, aqueous humor was collected from both eyes of rats, and partial eyeball tissues of rats were collected. The level of the inflammatory cytokines (TNF-α) was detected using a rat ELISA assay kit.
Statistical analysis was performed using SPSS software. Measurement data were expressed as mean ± standard deviation. One-way ANOVA was used for intergroup comparisons. For data with homogeneous variance, LSD test was used; for data with heterogeneous variance, Dunnett-t test was used. A value of P < 0.05 was considered statistically significant.

Data set [2] deals with inflammatory cytokines IL-6 and IL-12. Nature of the data set: Anti-asthma pharmacodynamic experiment: inflammatory cytokines in bronchoalveolar lavage fluid (ELISA). The data set is classed as in vivo, female BALB/c mice. Conditions: for Effects on inflammatory cytokines in bronchoalveolar lavage fluid of mice: compared with the model group. (In general: An ELISA detects its analyte on a solid surface through an enzyme-linked reagent.)
Procedure: Pharmacological Example 4: Pharmacodynamic Experiment on Anti-Asthma
The suspensions were stored at room temperature protected from light until use.
Positive control drug: Budesonide Suspension for Inhalation (specification: 2 mL: 1 mg; AstraZeneca Inc.; Lot No. : 327392) was diluted with injection-grade sodium chloride solution to 0.3 mg/ml as the positive control drug, and stored at room temperature protected from light until use.
Sixty female BALB/c mice underwent a one-week adaptive feeding period. Ten mice were randomly selected as the blank control group, while 50 mice were selected to establish asthma models.
From days 21 to 23 after sensitization, the mice in the model group and drug administration group were exposed to a 30-minute aerosol challenge with 5% OVA, while the mice in the blank control group were exposed to normal saline aerosol for the same duration.
At the end of airway hyperresponsiveness testing in mice, the mice were euthanized by cervical dislocation and fixed on a dissection tray. The abdomens and thoracic cavities of the mice were opened, and the skin and excess tissues of the neck were excised to expose the trachea of the mice. A small incision was made transversely on the trachea with a small scissors. A pre-treated 1 mL syringe needle was inserted and fastened with surgical thread. A 1 mL syringe was used to slowly inject 0.5 mL of pre-chilled phosphate-buffered saline (PBS) into the lungs of the mice, followed by slow aspiration. Each mouse was lavaged once, and a total of approximately 0.4 ml of lavage fluid was collected. The bronchoalveolar lavage fluid was centrifuged at 3000 rpm for 5 min. After centrifugation, the supernatant was aliquoted, and the levels of inflammatory cytokines IL-6 and IL-12 in the bronchoalveolar lavage fluid were determined using ELISA kits.

In a further data set the test system is asthma model mice. Briefly: Anti-asthma pharmacodynamic experiment: airway hyperresponsiveness (Penh) after methacholine challenge. The data set is classed as in vivo, female BALB/c mice. The conditions noted are these: for Effects on airway hyperresponsiveness (Penh values) in mice: compared with the model group.
Another data set deals with epidermal layer in rats. Nature of the data set: Adverse reactions of continuous dermal administration: thickness of the epidermal layer (H&E sections). The data set is classed as in vivo, SD rats. The conditions noted are these: for thickness of the epidermal layer after continuous dermal administration: compared with the blank control group. The source says: Pharmacological Example 10: Experiment on Adverse Reactions of Continuous Dermal Administration in Rats
Animals: SD rats, SPF grade, with an equal number of males and females, weighing 230-250 g.
Animal grouping: After adaptive feeding, the rats were randomly divided into 4 groups. […] One day before administration, the backs of rats were shaved at an area of 5 cm × 6 cm. […] The rats in the blank control group were applied with the blank matrix of corresponding mass on their backs, twice a day for a consecutive week. Table 21. Animal grouping and drug administration dosages for the experiment on adverse reactions of continuous dermal administration in rats
To examine the effects of continuous administration of the test samples on the epidermal layer, the back skin tissues were stained with hematoxylin and eosin (H&E) (magnification ×40), and the thickness of the epidermal layer was quantitatively measured based on the H&E-stained sections.

For the next data set, the system named is psoriasis model mice. Briefly: Psoriasis experiment (imiquimod model): skin lesion (PASI) score. The data set is classed as in vivo. Conditions: for PASI scores: compared with the model group.
In a further data set the test system is IL-17. Nature of the data set: Psoriasis experiment (imiquimod model): inflammatory cytokine in serum (ELISA). The data set is classed as in vivo, mice. The conditions noted are these: for level of IL-17 / inflammatory cytokines in psoriasis model mice: compared with the model group.
The test system of data set [3] is dry eye syndrome model New Zealand rabbits. Briefly: Dry eye syndrome experiment (benzalkonium chloride model): tear secretion test with phenol red cotton threads. It counts as in vivo, male New Zealand White rabbits. Conditions: for tear secretion: compared with the model group.
The next data set concerns uveitis model rats. Briefly: Anti-uveitis pharmacodynamic experiment (LPS model): ocular pathological score. The data set is classed as in vivo, male SD rats. The conditions noted are these: for Ocular pathological score: 1 mg/mL, 40 µL/eye, 3 times a day for 2 days; for ocular abnormalities / ocular pathological score: compared with the model group.
The nature of data set [4]: Pharmacokinetic (PK) experiment in rats. The conditions noted are these: same experimental conditions. It counts as in vivo, male SD rats. The method, boiled down:
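Male SD rats dosed by body weight, oral group fasted overnight until 4 h post-dose. Jugular blood sampled 2 min–24 h into heparin; plasma analysed and PK parameters derived from concentration–time data.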

Where [5] appears, read: bronchoalveolar lavage fluid, 0.3 mg/mL, 50 µL intratracheally once daily for 3 days.

Procedure for uveitis model rats: Fifty male SD rats underwent a one-week adaptive feeding period. […] Groups 2 to 5 were used to establish rat uveitis models by single subcutaneous injection of 1 mg/kg LPS (Salmonella; Sigma; Lot No. 0000164114) into the plantar tissue of the hindpaw. Salmonella endotoxin was dissolved in normal saline to prepare an injection solution at a concentration of 2 mg/mL, which was injected subcutaneously at 1 mg/kg into the plantar tissue of one paw of the rats. Group 1 was injected with an equal volume of normal saline.
At the end of the experiment, photos of the rats' eyes were taken using a slit-lamp microscope, and the differences in ocular lesions of rats among groups were compared and analyzed.

Take `C[C@]12C=CC(=O)C=C1CC[C@H]1[C@@H]3C[C@H]4OC(c5ccc(CSC6CCOC6=O)cc5)O[C@@]4(C(=O)CO)[C@@]3(C)C[C@H](O)[C@@]12Cl` (stereo partly drawn) [Compound 23, (6aS,6bR,7S,8aS,8bS,11aR,12aS,12bS)-6b-Chloro-7-hydroxy-8b-(2-hydroxyacetyl)-6a,8a-dimethyl-10-(4-(((2-oxotetrahydrofuran-3-yl)thio)methyl)phenyl)-1,2,6a,6b,7,8,8a,8b,11a,12,12a,12b-do decahydro-4H-naphtho[2',1':4,5]indeno[1,2-d][1,3]dioxol-4-one]: the “inflammatory cytokines in aqueous humor” value in [1] is on record as “suppressed inflammatory cytokines in aqueous humor”. Moreover, in [2] (setting [5]), the “IL-6” value turned out to be 11.1 ± 5.5 pg/mL and the “IL-12” value is given as 7.0 ± 3.9 pg/mL. Further, the “Effects on inflammatory cytokines in bronchoalveolar lavage fluid of mice” value (from here on “Effects on inflammatory cytokines”) in data set [2] is “extremely significantly decreased the levels of IL-6 and IL-12 in mice”. Besides, the “Penh values in mice, Methacholine concentration (mg/ml) 0” value in the data set on asthma model mice (0.3 mg/mL, 50 µL intratracheally once daily for 3 days, methacholine 0 mg/ml) was found to be 1.12 ± 0.30. Moreover, in the data set on asthma model mice (0.3 mg/mL, 50 µL intratracheally once daily for 3 days, methacholine 6.25 mg/ml), the “Penh values in mice, Methacholine concentration (mg/ml) 6.25” value is 1.55 ± 0.29. Besides, the “Penh values in mice, Methacholine concentration (mg/ml) 12.5” value in the data set on asthma model mice (0.3 mg/mL, 50 µL intratracheally once daily for 3 days, methacholine 12.5 mg/ml) worked out at 1.84 ± 0.38. Also, in the data set with asthma model mice, the “Effects on airway hyperresponsiveness (Penh values) in mice” value (“Effects on airway hyperresponsiveness” for short) is on record as “significantly decreased the Penh values in mice”. Moreover, the “Epidermal layer thickness (µm)” value with epidermal layer in rats (100 mg cream on the back twice a day for a week (compounds 1 mg/g, Compound Dexamethasone Acetate 0.75 mg/g)) worked out at 24.3 ± 1.1 µm. Further, in the data set with epidermal layer in rats, the “thickness of the epidermal layer after continuous dermal administration” value (shortened to “thickness of the epidermal layer”) is reported as “no significant changes in the thickness of the epidermal layer were observed”. In addition, the PASI scores result in the data set with psoriasis model mice was “PASI scores significantly decreased on day 7”. In the data set with psoriasis model mice (day 8 of modeling, 0.2 g cream per mouse daily for 7 days (compounds 1 mg/g, fluticasone propionate 0.5 mg/g)), this compound had a PASI score of 3.8 ± 1.0. Besides, in the data set with IL-17, the “level of IL-17 / inflammatory cytokines in psoriasis model mice” value (“level of IL-17 / inflammatory cytokines” below) is “significantly decreased the level of IL-17”. Besides, in the data set with IL-17 (serum, day 8 of modeling, 0.2 g cream per mouse daily for 7 days), the “IL-17” value was determined as 19.56 ± 8.13 pg/mL. Also, in [3] (D0, 1 mg/mL, 50 µL/eye, 3 times a day for 14 days), the “Wetting length of phenol red cotton threads (mm) D0” value worked out at 28.24 ± 6.22 mm. Besides, the “Wetting length of phenol red cotton threads (mm) D3” value in data set [3] (D3, 1 mg/mL, 50 µL/eye, 3 times a day for 14 days) was 29.4 ± 4.63 mm. Besides, the “Wetting length of phenol red cotton threads (mm) D7” value in data set [3] (D7, 1 mg/mL, 50 µL/eye, 3 times a day for 14 days) came out at 31.88 ± 6.20 mm. Further, the “Wetting length of phenol red cotton threads (mm) D15” value in data set [3] (D15, 1 mg/mL, 50 µL/eye, 3 times a day for 14 days) is 36.05 ± 5.74" mm. For the same compound, in data set [3], the tear secretion result was “significantly increased the tear secretion on day 15”. In the data set on uveitis model rats, the Ocular pathological score was determined as 7.0 ± 0.5; the “ocular abnormalities / ocular pathological score” value was “significantly improved the ocular abnormalities and reduced the ocular pathological score”. In addition, in [4], the “pharmacokinetic properties (plasma clearance rate, systemic exposure)” value (from here on “pharmacokinetic properties”) is given as “pharmacokinetic properties similar to those of compound 8”.
With `C[C@]12C=CC(=O)C=C1CC[C@H]1[C@@H]3C[C@H]4OC(c5ccc(CSC6COC(=O)C6)cc5)O[C@@]4(C(=O)CO)[C@@]3(C)C[C@H](O)[C@@]12Cl` (stereo partly drawn) [Compound 26, (6aS,6bR,7S,8aS,8bS,11aR,12aS,12bS)-6b-Chloro-7-hydroxy-8b-(2-hydroxyacetyl)-6a,8a-dimethyl-10-(4-(((5-oxotetrahydrofuran-3-yl)thio)methyl)phenyl)-1,2,6a,6b,7,8,8a,8b,11a,12,12a,12b-do decahydro-4H-naphtho[2',1':4,5]indeno[1,2-d][1,3]dioxol-4-one], the “inflammatory cytokines in aqueous humor” value in data set [1] is “suppressed inflammatory cytokines in aqueous humor”. Besides, in [2], the “Effects on inflammatory cytokines” value is reported as “pharmacological effects similar to those of compound 23”. Also, the “Effects on airway hyperresponsiveness” value in the data set with asthma model mice is on record as “significantly decreased the Penh values in mice”. The “thickness of the epidermal layer” value with epidermal layer in rats is “no significant changes in the thickness of the epidermal layer observed”. Also, the PASI scores entry with psoriasis model mice is recorded as “significantly decreased PASI scores on day 7”. Further, the “level of IL-17 / inflammatory cytokines” value in the data set with IL-17 is on record as “significantly inhibited inflammatory cytokines in the skin of psoriasis model mice”. For the same compound, the tear secretion result in data set [3] is “significantly increased the tear secretion”. In the data set on uveitis model rats, the Ocular pathological score was 7.6 ± 0.5; the “ocular abnormalities / ocular pathological score” value was “significantly improved the ocular abnormalities and reduced the ocular pathological score”. For the same compound, the “pharmacokinetic properties” value in data set [4] was “pharmacokinetic properties similar to those of compound 8”.
`C[C@]12C=CC(=O)C=C1[C@@H](F)C[C@H]1[C@@H]3C[C@H]4OC(c5ccc(CSC6CCOC6=O)cc5)O[C@@]4(C(=O)SCF)[C@@]3(C)C[C@H](O)[C@@]12F` (stereo partly drawn) [Compound 34, S-(Fluoromethyl) (2S,6aS,6bR,7S,8aS,8bS,11aR,12aS,12bS)-2,6b-difluoro-7-hydroxy-6a,8a-dimethyl-4-oxo-10-(4-( ((2-oxotetrahydrofuran-3-yl)thio)methyl)phenyl)-1,2,4,6a,6b,7,8,8a,11a,12,12a,12b-dodecahydro-8bH-naphtho[2',1':4,5]indeno[1,2-d][1,3]dioxole-8b-carbothioate]: the “inflammatory cytokines in aqueous humor” value in data set [1] was “suppressed inflammatory cytokines in aqueous humor”. Also, the “Effects on inflammatory cytokines” value in [2] is on record as “pharmacological effects similar to those of compound 23”. For the same compound, the “Effects on airway hyperresponsiveness” value in the data set on asthma model mice is recorded as “significantly decreased the Penh values in mice”. Further, the “thickness of the epidermal layer” value with epidermal layer in rats was “no significant changes in the thickness of the epidermal layer observed”. In the data set on psoriasis model mice, the PASI scores entry is given as “significantly decreased PASI scores on day 7”. The “level of IL-17 / inflammatory cytokines” value with IL-17 is “significantly inhibited inflammatory cytokines in the skin of psoriasis model mice”. Further, in data set [3], the tear secretion entry is “significantly increased the tear secretion”. The “ocular abnormalities / ocular pathological score” value in the data set with uveitis model rats is “significantly improved ocular abnormalities”. The “pharmacokinetic properties” value in [4] was “pharmacokinetic properties similar to those of compound 8”.
Regarding `C[C@]12C=CC(=O)C=C1[C@@H](F)C[C@H]1[C@@H]3C[C@H]4OC(c5ccc(CSC6CCOC6=O)cc5)O[C@@]4(C(=O)SCC#N)[C@@]3(C)C[C@H](O)[C@@]12F` (stereo partly drawn) [Compound 35, S-(Cyanomethyl) (2S,6aS,6bR,7S,8aS,8bS,11aR,12aS,12bS)-2,6b-difluoro-7-hydroxy-6a,8a-dimethyl-4-oxo-10-(4-( ((2-oxotetrahydrofuran-3-yl)thio)methyl)phenyl)-1,2,4,6a,6b,7,8,8a,11a,12,12a,12b-dodecahydro-8bH-naphtho[2',1':4,5]indeno[1,2-d][1,3]dioxole-8b-carbothioate], the “inflammatory cytokines in aqueous humor” value in data set [1] is recorded as “suppressed inflammatory cytokines in aqueous humor”. In data set [2], the “Effects on inflammatory cytokines” value is “pharmacological effects similar to those of compound 23”. Also, in the data set with asthma model mice, the “Effects on airway hyperresponsiveness” value is reported as “significantly decreased the Penh values in mice”. For the same compound, the “thickness of the epidermal layer” value in the data set with epidermal layer in rats is reported as “no significant changes in the thickness of the epidermal layer observed”. The PASI scores entry in the data set on psoriasis model mice was “significantly decreased PASI scores on day 7”. For the same compound, the “level of IL-17 / inflammatory cytokines” value with IL-17 is reported as “significantly inhibited inflammatory cytokines in the skin of psoriasis model mice”. Moreover, the tear secretion result in data set [3] is recorded as “significantly increased the tear secretion”. The “ocular abnormalities / ocular pathological score” value in the data set with uveitis model rats is recorded as “significantly improved ocular abnormalities”. Also, the “pharmacokinetic properties” value in [4] is on record as “pharmacokinetic properties similar to those of compound 8”.
